Source: US20060135522A1, “Tricyclic delta-opioid modulators” (priority 2004, published 2006)
Like-named read-outs stand apart in the source and are kept apart here.

What was measured:
mu opioid receptor = target: T1, mu opioid receptor (Rattus norvegicus, UniProt P33535); assay: Rat Brain Mu Opioid Receptor Binding Assay
T1 construct: from tissue; host or cells: forebrain of male Wistar rats (particulate membrane preparation)
Procedure: Procedure: Male, Wistar rats (150-250 g, VAF, Charles River, Kingston, N.Y.) were killed by CO2, and their brains were removed and placed immediately in ice cold Tris HCl buffer (50 mM, pH 7.4). The forebrains were separated from the remainder of the brain by a coronal transection, beginning dorsally at the colliculi and passing ventrally through the midbrain-pontine junction. After dissection, the forebrains were homogenized in Tris buffer in a Teflon®-glass homogenizer. The homogenate was diluted to a concentration of 1 g of forebrain tissue per 80 mL Tris and centrifuged at 39,000×g for 10 min. The pellet was resuspended in the same volume of Tris buffer containing 5 mM MgCl2 with several brief pulses from a Polytron homogenizer. This particulate preparation was used for the mu opioid binding assays.
(§1) Analysis: The data from the scintillation counter was used to calculate either the % inhibition compared to control binding (when only a single concentration of test compound was evaluated) or a Ki value (when a range of concentrations was tested). Percent inhibition was calculated as: [(total dpm-test compound dpm)/(total dpm-nonspecific dpm)]*100. Kd and Ki values were calculated using GraphPad PRISM data analysis program.

[1] = target: T2, delta opioid receptor (NG108-15 cell membranes) (Mus musculus, UniProt P32300); assay: [35S]GTPγS Binding Assay in NG108-15 Cell Membranes (Delta Opioid); format: biochemical
T2 construct: NG108-15 cell membranes were purchased from Applied Cell Sciences (Rockville, Md.); host or cells: NG108-15 cell membranes (purchased)
Procedure: Methods: NG108-15 cell membranes were purchased from Applied Cell Sciences (Rockville, Md.). 8 mg/mL of membrane protein was suspended in 10 mM TRIS-HCl pH 7.2, 2 mM EDTA, 10% sucrose. Membranes were maintained at 4-8° C. A 1 mL volume of membranes was added into 10 mL cold binding assay buffer. The assay buffer contained 50 mM Tris, pH 7.6, 5 mM MgCl2, 100 mM NaCl, 1 mM DTT and 1 mM EGTA. The membrane suspension was homogenized twice with a Polytron, and centrifuged at 3000 rpm for 10 min. The supernatant was then centrifuged at 18,000 rpm for 20 min. Ten mL assay buffer was added into the pellet containing tube. The pellet and buffer were mixed with a Polytron.
Incubation procedure: The pellet membranes (75 μg/mL) were preincubated with SPA (10 mg/mL) at 25° C. for 45 min in the assay buffer. […] GTPγS in the same Tris buffer containing 100 μM GDP in a total volume of 200 μL. Increasing concentrations of receptor agonists were used to stimulate [^35S]-GTP[…]S binding. The basal binding was tested in the absence of agonists and non-specific binding was tested in the presence of 10 μM unlabeled GTPγS. The data were analyzed on a Packard Top Count.
% of Basal=(stimulated−non specific)*100/(basal−non specific).
EC50 value values were calculated using GraphPad Prism.

delta opioid receptor = target: T3, delta opioid receptor (Rattus norvegicus, UniProt P33533); assay: Rat Brain Delta Opioid Receptor Binding Assay
T3 construct: from tissue; host or cells: forebrain of male Wistar rats (particulate membrane preparation)
Procedure: Procedure: Male, Wistar rats (150-250 g, VAF, Charles River, Kingston, N.Y.) were killed by CO2, and their brains were removed and placed immediately in ice cold Tris HCl buffer (50 mM, pH 7.4). The forebrains were separated from the remainder of the brain by a coronal transection, beginning dorsally at the colliculi and passing ventrally through the midbrain-pontine junction. After dissection, the forebrains were homogenized in Tris buffer in a Teflon®-glass homogenizer. The homogenate was diluted to a concentration of 1 g of forebrain tissue per 80 mL Tris and centrifuged at 39,000×g for 10 min. The pellet was resuspended in the same volume of Tris buffer containing 5 mM MgCl2 with several brief pulses from a Polytron homogenizer. This particulate preparation was used for the delta opioid binding assays. Following incubation with the delta selective peptide ligand ˜4 nM [^3H]DPDPE or 0.15 nM [^3H]naltrindole at 25° C. for 2.5 h in a 96-well plate with total volume of […], the plate contents were filtered through Wallac filtermat B sheets on a Tomtec 96-well harvester. The filters were rinsed three times with 2 mL of 10 mM HEPES (pH 7.4), and dried in a 650 W microwave oven for 1.75 min twice. To each sample area 2×50 μL of Betaplate Scint scintillation fluid (LKB) was added and the radioactivity was quantified on a LKB (Wallac) 1205 BetaPlate liquid scintillation counter.
as §1

[2] = rat forebrain membranes, [3H]DAMGO, 25° C., 2.5 h, read-out: mu (Ki)
[3] = NG108-15 cell membranes, stimulation of [35S]GTPγS binding, read-out: delta GTPγS EC50
[4] = rat forebrain membranes, [3H]DPDPE or [3H]naltrindole, 25° C., 2.5 h, read-out: delta (Ki)

T1 sequence (P33535 whole entry): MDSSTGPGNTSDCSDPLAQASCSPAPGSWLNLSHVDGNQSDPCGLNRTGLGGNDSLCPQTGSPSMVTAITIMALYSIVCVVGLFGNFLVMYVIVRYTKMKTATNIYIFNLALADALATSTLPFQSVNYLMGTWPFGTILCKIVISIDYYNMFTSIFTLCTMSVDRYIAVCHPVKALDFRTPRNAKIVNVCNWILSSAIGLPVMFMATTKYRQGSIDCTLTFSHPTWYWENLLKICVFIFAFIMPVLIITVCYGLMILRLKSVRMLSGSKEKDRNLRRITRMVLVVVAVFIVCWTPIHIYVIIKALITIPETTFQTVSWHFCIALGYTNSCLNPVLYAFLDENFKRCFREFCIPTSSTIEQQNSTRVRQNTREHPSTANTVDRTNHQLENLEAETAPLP
T3 sequence (P33533 whole entry): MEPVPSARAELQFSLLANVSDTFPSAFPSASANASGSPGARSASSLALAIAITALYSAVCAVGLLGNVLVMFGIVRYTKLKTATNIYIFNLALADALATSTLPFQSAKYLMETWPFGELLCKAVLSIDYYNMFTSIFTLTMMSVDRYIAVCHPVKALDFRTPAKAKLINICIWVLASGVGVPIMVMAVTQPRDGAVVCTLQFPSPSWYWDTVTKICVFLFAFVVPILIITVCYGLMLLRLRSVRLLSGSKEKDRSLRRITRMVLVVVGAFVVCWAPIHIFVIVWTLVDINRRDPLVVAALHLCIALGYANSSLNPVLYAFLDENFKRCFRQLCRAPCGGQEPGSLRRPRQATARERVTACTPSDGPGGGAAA
T2 sequence (P32300 whole entry): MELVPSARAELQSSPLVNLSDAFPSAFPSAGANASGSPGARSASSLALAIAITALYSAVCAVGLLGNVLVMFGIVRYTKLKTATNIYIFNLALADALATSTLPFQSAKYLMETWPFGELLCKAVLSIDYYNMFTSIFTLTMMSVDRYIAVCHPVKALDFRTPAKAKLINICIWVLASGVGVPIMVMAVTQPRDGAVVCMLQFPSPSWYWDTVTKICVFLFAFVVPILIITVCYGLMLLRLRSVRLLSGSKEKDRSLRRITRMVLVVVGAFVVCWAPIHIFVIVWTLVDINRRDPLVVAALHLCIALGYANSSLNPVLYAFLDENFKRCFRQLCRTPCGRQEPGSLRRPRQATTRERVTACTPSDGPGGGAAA

Structure (SMILES) | Ki (mu opioid receptor; [2]) [µM] | Ki (delta opioid receptor) [µM] | Ki (delta opioid receptor; [4]) [µM] | Ki (mu opioid receptor) [µM] | other results
CCN(CC)C(=O)c1cccc(-c2ccc3c(c2)Oc2c(O)cccc2C3C2CCNCC2)c1 (centres unmarked) [3j, N,N-Diethyl-3-(5-hydroxy-9-piperidin-4-yl-9H-xanthen-3-yl)-benzamide] | 0.535 | 0.0378 | – | – | EC50 [1, 3]: 0.342 µM
c1cncc(-c2ccc3c(c2)Oc2ccccc2C3C2CCN(Cc3ccoc3)CC2)c1 (centres unmarked) [5f, 3-[9-(1-Furan-3-ylmethyl-piperidin-4-yl)-9H-xanthen-3-yl]-pyridine] | 3.16 | – | 0.303 | – | –
CC(=O)Nc1ccccc1-c1ccc2c(c1)Oc1ccccc1C2C1CCN(CCc2ccccc2)CC1 (centres unmarked) [5g, N-{2-[9-(1-Phenethyl-piperidin-4-yl)-9H-xanthen-3-yl]-phenyl}-acetamide] | 0.995 | – | 4.57 | – | –
O=C(c1ccc2c(c1)Oc1ccccc1C2C1CCN(Cc2ccoc2)CC1)N1CC[C@H](O)C1 (stereo partly drawn) [5n, [9-(1-Furan-3-ylmethyl-piperidin-4-yl)-9H-xanthen-3-yl]-(3-(S)-hydroxy-pyrrolidin-1-yl)-methanone] | > 10 | – | 0.177 | – | –
CCN(CC)C(=O)c1ccc2c(c1)Oc1c(OC)cccc1C2C1CCNCC1 (centres unmarked) [6c, 5-Methoxy-9-piperidin-4-yl-9H-xanthene-3-carboxylic acid diethylamide] | > 10 | – | 0.277 | – | –
C=CCN1CCC(C2c3ccccc3Oc3cc(-c4ccccc4NC(C)=O)ccc32)CC1 (centres unmarked) [6g, N-{2-[9-(1-Allyl-piperidin-4-yl)-9H-xanthen-3-yl]-phenyl}-acetamide] | 9.63 | – | 1.09 | – | –
CCN(CC)C(=O)c1ccc2c(c1)Oc1c(Cl)cccc1C2C1CCNCC1 (centres unmarked) [6k, 5-Chloro-9-piperidin-4-yl-9H-xanthene-3-carboxylic acid diethylamide] | 5.7 | – | 0.274 | – | –
O=C(c1ccc2c(c1)Oc1ccccc1C2C1CCN(CCc2ccccc2)CC1)N1CC[C@H](O)C1 (stereo partly drawn) [6n, (3-(S)-Hydroxy-pyrrolidin-1-yl)-[9-(1-phenethyl-piperidin-4-yl)-9H-xanthen-3-yl]-methanone] | 3.4 | – | 7.05 | – | –
COc1cccc2c1Oc1cc(-c3cccnc3)ccc1C2C1CCNCC1 (centres unmarked) [7b, 3-(5-Methoxy-9-piperidin-4-yl-9H-xanthen-3-yl)-pyridine] | > 10 | – | 0.318 | – | –
CCN(CC)C(=O)c1ccc2c(c1)Oc1c(O)cccc1C2C1CCNCC1 (centres unmarked) [7c, 5-Hydroxy-9-piperidin-4-yl-9H-xanthene-3-carboxylic acid diethylamide] | – | 0.002 | – | 4.23 | EC50 [1]: 0.0187 µM; delta GTPγS Rel Eff. ([1]; NG108-15 cell membranes, relative efficacy): 0.51
c1ccc(CN2CCC(C3c4ccccc4Oc4cc(-c5cccnc5)ccc43)CC2)cc1 (centres unmarked) [7f, 3-[9-(1-Benzyl-piperidin-4-yl)-9H-xanthen-3-yl]-pyridine] | – | 0.783 | – | 3.12 | –
CCN(CC)C(=O)c1ccc2c(c1)Oc1ccccc1C2C1CCNCC1 (centres unmarked) [8a, 9-Piperidin-4-yl-9H-xanthene-3-carboxylic acid diethylamide] | 8.79 | 0.015 | – | – | EC50 [1, 3]: 0.266 µM
COc1cccc2c1Oc1cc(-c3ccncc3)ccc1C2C1CCNCC1 (centres unmarked) [8b, 4-(5-Methoxy-9-piperidin-4-yl-9H-xanthen-3-yl)-pyridine] | > 10 | – | 0.619 | – | –
c1ccc(CCN2CCC(C3c4ccccc4Oc4cc(-c5cccnc5)ccc43)CC2)cc1 (centres unmarked) [8f, 3-[9-(1-Phenethyl-piperidin-4-yl)-9H-xanthen-3-yl]-pyridine] | 0.907 | – | 2.99 | – | –
CCN(CC)C(=O)c1ccc2c(c1)Oc1ccccc1C2C1CCN(Cc2ccoc2)CC1 (centres unmarked) [9a, 9-(1-Furan-3-ylmethyl-piperidin-4-yl)-9H-xanthene-3-carboxylic acid diethylamide] | – | 0.141 | – | 51 | –
COc1cccc2c1Oc1cc(-c3ccccc3NC(C)=O)ccc1C2C1CCNCC1 (centres unmarked) [9b, N-[2-(5-Methoxy-9-piperidin-4-yl-9H-xanthen-3-yl)-phenyl]-acetamide] | 4.45 | – | 0.761 | – | –
CCN(CC)C(=O)c1ccc2c(c1)Oc1ccccc1C2C1CCN(Cc2ccccc2)CC1 (centres unmarked) [10a, 9-(1-Benzyl-piperidin-4-yl)-9H-xanthene-3-carboxylic acid diethylamide] | – | 0.075 | – | 5.37 | –
CCN(CC)C(=O)c1ccc2c(c1)Oc1ccccc1C2C1CCN(Cc2ccccn2)CC1 (centres unmarked) [11a, 9-(1-Pyridin-2-ylmethyl-piperidin-4-yl)-9H-xanthene-3-carboxylic acid diethylamide] | – | 2.7 | – | 15.1 | –
CCN(CC)C(=O)c1ccc2c(c1)Oc1ccccc1C2C1CCN(CCc2ccccc2)CC1 (centres unmarked) [12a, 9-(1-Phenethyl-piperidin-4-yl)-9H-xanthene-3-carboxylic acid diethylamide] | – | 3.83 | – | 0.976 | –
CCN(CC)C(=O)c1ccc2c(c1)Oc1ccccc1C2C1CCN(Cc2ncc[nH]2)CC1 (centres unmarked) [13a, 9-[1-(1H-Imidazol-2-ylmethyl)-piperidin-4-yl]-9H-xanthene-3-carboxylic acid diethylamide] | – | 0.106 | – | 1.7 | –
CCN(CC)C(=O)c1ccc2c(c1)Oc1ccccc1C2C1CCN(CC2CC2)CC1 (centres unmarked) [14a, 9-(1-Cyclopropylmethyl-piperidin-4-yl)-9H-xanthene-3-carboxylic acid diethylamide] | 6.99 | – | 1.08 | – | –
CCN(CC)C(=O)c1ccc2c(c1)Oc1ccccc1C2C1CCN(Cc2cccs2)CC1 (centres unmarked) [15a, 9-(1-Thiophen-2-ylmethyl-piperidin-4-yl)-9H-xanthene-3-carboxylic acid diethylamide] | – | 0.45 | – | 4.12 | –
CCN(CC)C(=O)c1ccc2c(c1)Oc1ccccc1C2C1CCN(C)CC1 (centres unmarked) [16a, 9-(1-Methyl-piperidin-4-yl)-9H-xanthene-3-carboxylic acid diethylamide] | – | 1.14 | – | 35.2 | –
